The source of these data is patent publication US20070142395A1, “Treatment of sexual dysfunction with 1-[3-[4-(3-chlorophenyl)-1-piperazinyl]propyl]-5-methoxy-3,4-dihydro-2(1H)-quinolone or salt thereof” (Vela Pharmaceuticals, Inc., priority 2005, published 2007).

The assay concerns depressed patients. Put plainly: Comparison of change in CSFQ score (difference from placebo) with bupropion XL and escitalopram, FIG. 1. Format: in vivo, Humans. As to conditions: overall and virtually every CSFQ subscale, bupropion XL data from Clayton et al. As for the experimental part:
FIG. 1 depicts the difference in the Changes in Sexual Function Questionaire (CSFQ) scores (difference from placebo) from baseline to week 8 for OPC-14523, buproprion XL and escitalopram. The data for bupropion XL and escitalopram were obtained from Clayton et al., 45th Annual NCDEU Meeting, Session 1-21, Boca Raton, Fla., June 6-9, 2005. For the Clayton et al. data, N=273 (placebo), 276 (bupropion XL, 300-400 mg) and 281 (escitalopram, 10-20 mg).
There is evidence that bupropion reduces the sexual dysfunction in depressed patients, and may be useful as a treatment for sexual dysfunction. Therefore, the data of OPC-14523 effect on sexual dysfunction discussed above were compared to data on the effects of bupropion XL and escitalopram on sexual function reported by Clayton et al. (45th Annual NCDEU Meeting, Boca Raton, Fla. June 6-9, 2005).
The comparison was based on the change in CSFQ score from baseline to week 8. The changes were assessed by subtracting the placebo score from the treated score at baseline and at week 8, then taking the difference of these two numbers.

`COc1cccc2c1CCC(=O)N2CCCN1CCN(c2cccc(Cl)c2)CC1` [OPC-14523, 1-[3-[4-(3-chlorophenyl)-1-piperazinyl]propyl]-5-methoxy-3,4-dihydro-2(1H)-quinolone]: the “change in CSFQ score from baseline to week 8 (difference from placebo), compared to bupropion XL” value is “larger improvement”.
